Reference: patent publication US20020013478A1, “Calanolide analogues and methods of their use” (Sarawak Medichem Pharmaceuticals,Inc., priority 1994, published 2002)
pEC50, pIC50: −log10 of the molar value. Converted amounts (≈) assume the structure as drawn. Like-named read-outs stand apart in the source and are kept apart here.

Experiments:
[1] = tested on: HCMV; assay: HCMV semi-automated CPE-inhibition assay in human foreskin fibroblast cells; type: cell-based, human cytomegalovirus; details: Table II; for EC50: Human betaherpesvirus 5, Fibroblast
[2] = tested on: 2.2.15 cells; assay: Toxicity in 2.2.15 cells, neutral red dye uptake; type: cell-based, human
Protocol: Cells of 2.2.15 were grown to confluence in 96-well flat-bottomed tissue culture plates and treated with compounds (in 0.2 mL culture medium/well) as described above. Four concentrations of each compound were assayed, each in triplicate cultures, in 3- to 10-fold steps. Untreated control cultures were maintained on each 96-well plate. On each 96-well plate, wells containing no cells were used to correct for light scattering.

[3] = tested on: HBV RI; assay: HBV replication in 2.2.15 cells, intracellular DNA replication intermediates (secondary assay); details: for pEC50: read-out: HBV RI EC50; for EC90: read-out: HBV RI EC90
[4] = tested on: HBV; assay: HBV replication in cultures of 2.2.15 cells, extracellular HBV virion DNA (primary assay); details: for activity in primary assay (HBV virion): text summary of Table IV
Protocol: Both intracellular and extracellular HBV DNA are analyzed in order to (i) allow for verification of compound efficacy and (ii) provide possible data on the target site in the HBV replication pathway for the compound from examination of the pattern of viral replicative forms. The culture medium is changed daily during the treatment period to (i) prevent the buildup of potentially toxic metabolites derived from test compounds and (ii) provide an analysis of HBV virion production during discrete 24-hour intervals which enables a quantitative comparison of any effect on virion production.
The analysis of HBV DNA is performed using blot hybridization techniques (Southern and slot blot) and [^32P]-labeled HBV-specific probes. HBV DNA levels are measured by comparison to known amounts of HBV DNA standards applied to every nitrocellulose membrane (gel or slot blot). An AMBIS beta scanner, which measures the radioactive decay of the hybridized probes directly from the nitrocellulose membranes, is used for the quantitative analysis. Standard curves, generated by multiple analyses, are used to correlate CPM measurements made by the beta scanner with relative levels of target HBV DNA. The levels of HBV virion DNA released into the culture medium are analyzed by a slot blot hybridization procedure.

[5] = tested on: human foreskin fibroblast cells; assay: Toxicity run with the HCMV assay, human foreskin fibroblast cells; type: cell-based; details: Table II; for IC50: Homo sapiens, Fibroblast
Protocol: (§1) [table] […] The media from the wells is then aspirated and 2 mL of each drug concentration is then added to each well. The cells are then incubated in a CO2 incubator at 37° C. for 72 h. At the end of this time, the media-drug solution is removed and the cells washed. […] The cell-media mixture is then pipetted up and down vigorously to break up the cell suspension, and 0.2 mL of the mixture is added to 9.8 mL of Isoton III and counted using a Coulter Counter. Each sample is counted three times with three replicate wells per sample. The procedure for plating cells and adding drug is the same as for the MTT Assay. After drug addition, the plates are incubated for seven days in a CO2 incubator at 37° C. […] This is incubated in the CO2 incubator for one hour. The dye is aspirated and the cells are washed using a Nunc Plate Washer. […] The plates are rotated for 15 minutes and the optical densities are read at 550 nm on a plate reader.

[6] = tested on: CEM-SS cells; assay: CEM-SS MTT assay, cytotoxicity (Table I); type: cell-based, human; details: Homo sapiens
[7] = tested on: Raji or Daudi cells; assay: Toxicity run with the EBV assay; type: cell-based, human; details: Table II
Text: IC50 (50% inhibitory concentration) is the concentration required to inhibit cell proliferation by 50%

[8] = tested on: human foreskin fibroblast cells; assay: Toxicity run with the VZV assay, human foreskin fibroblast cells; type: cell-based; details: Table II
Protocol: as §1

[9] = tested on: EBV; assay: EBV assay: superinfection of Raji or Daudi cells with P3HR-1, immunofluorescence for EA and VCA; type: cell-based, Epstein-Barr virus; details: Table II
Text: There are two prototypes of infectious EBV. One is exemplified by the virus derived from supernatant fluids of the P3HR-1cell line. This cell line produces nontransforming virus that causes the production of early antigen (EA) after primary infection or superinfection of B cell lines. The other prototype is exemplified by the B-95-8 virus. This virus immortalized cord blood lymphocytes and induced tumors in marmosets.
The virus used in our assays is P3HR-1.
Ramos is an exceptional B cell line derived from Burkitt's lymphoma tumor but containing no detectable EBV genome copies and is EBNA negative. Ramos/AW was obtained by in vitro infection of Ramos with the P3HR-1 virus and contains one resident EBV genome copy/cell. Raji is a Burkitt's lymphoma cell line containing 60 EBV genomes/cell, and will be the primary cell used for screening antiviral activity against EBV EA expression. Daudi is a low level producer that contains 152 EBV genome copies/cell. It spontaneously expresses EBV EA in 0.25%-0.5% of the cells. It will be used in follow-up studies to confirm activity. These cell lines respond to superinfection by EBV by expressing EA(D), EA(R), and VCA. All cell lines are maintained in RPMI-1640 medium supplemented by 10% FCS, L-glutamine and 100 μg/mL gentamicin. The cultures are fed twice weekly and the cell concentration adjusted to 3×10^5/mL. The cells are kept at 37° C. in a humidified atmosphere with 5% CO2.
Cells are infected with the P3HR-1 strain of EBV and the drugs to be tested are added after adsorption (45 minutes at 37° C.) and washing of the cell cultures. The cultures are incubated for two days in complete medium to allow viral gene expression. Following the 48 hr incubation period, the number of cells of each sample are counted and smears made. Monoclonal antibodies to the different EA components and VCA are then added to the cells incubated and washed. This is followed by a fluorescein conjugated rabbit anti-mouse Ig antibody; and the number of fluorescence positive cells in the smears are counted. The total number of cells in the cultures positive for EA or VCA are then calculated and compared.

[10] = tested on: VZV; assay: VZV plaque reduction assay in human foreskin fibroblast cells; type: cell-based, varicella zoster virus; details: Table II
Protocol: Two days prior to use, HFF cells are plated into six-well plates and incubated at 37° C. with 5% CO2 and 90% humidity. On the date of assay, the drug is made up at twice the desired concentration in 2x MEM and then serially diluted 1:5 in 2x MEM using six concentrations of drug. The initial starting concentration is usually 200 gg/mL down to 0.06 μg/mL. The virus to be used is diluted in MEM containing 10% FBS to a desired concentration which will give 20-30 plaques per well. The media is then aspirated from the wells and 0.2 mL of virus is added to each well in duplicate with 0.2 mL of media being added to drug toxicity wells. The plates are then incubated for one hour with shaking every fifteen minutes. After the incubation period, an equal amount of 1% agarose was added to an equal volume of each drug dilution. This will give final drug concentrations beginning with 100 μg/mL and ending with 0.03 μg/mL and a final agarose overlay concentration of 0.5%. The drug agarose mixture is applied to each well in 2 mL volume and the plates then incubated for three days, after which the cells were stained with a 1.5% solution of neutral red. At the end of 4-6hr incubation period, the stain is aspirated, and plaques counted using a stereomicroscope at lOx magnification.
The procedure is essentially the same as for the HSV plaque assay described above with two exceptions:
1. After addition of the drug, the plates are incubated for ten days.
2. On days three and six, an additional 1 mL overlay with equal amounts of 2x MEM and 1% agarose are added.

[11] = tested on: G910-6 HIV viral strain; assay: In vitro MTT assay, AZT-resistant isolate (Example 37, FIGS. 1); details: G910-6 strain, FIGS. 1(a)-1(e)
[12] = tested on: H112-2 HIV viral strain; assay: In vitro MTT assay, isolate not pre-treated with AZT (Example 37, FIGS. 2); details: H112-2 strain; FIGS. 2(a)-2(e)
[13] = tested on: HIV-1; details: for Maximum Protection (%): CEM-SS MTT assay; for protecting cells against HIV infection: text summary of Table I
[14] = tested on: HIV-1; assay: microbe, parasite or virus in culture; details: Human immunodeficiency virus 1, CEM-SS
[15] = tested on: AZT-resistant G-9106 strain of HIV; details: cited from earlier work
[16] = tested on: human T-lymphoblastic cells (CEM-SS); details: cited from earlier work
[17] = tested on: HIV-1; details: cited from earlier work
[18] = tested on: pyridinone-resistant A17 virus; details: cited from earlier work
[19] = tested on: uninfected cells (MT-2, CEM-SS); assay: MTT cytotoxicity on uninfected cells (Example 37); type: cell-based, human
[20] = Homo sapiens, Table II, read-out: HBV IC50
[21] = Hepatitis B virus, read-out: HBV EC50

Structure (SMILES): CCCc1cc(=O)oc2c3c(c4c(c12)OC(C)(C)C=C4)OC(C)C(C)(C)C3=O (racemic) [(±)-15a, (±)-10,11-Dihydro-6,6,10,11,11-pentamethyl-4-propyl-2H,6H, 12H-benzo[1,2-b:3,4-b′:5,6-b″]tripyran-2,12-dione]
- EC50 [1]: > 100 µg/mL
- pIC50 [2, 20]: 2.70
- pIC50 ([2]; Homo sapiens, Table IV, HBV RI columns, read-out: HBV RI IC50): 2.75
- pIC50 ([2]; Homo sapiens, Table IV, HBV Virion columns, read-out: HBV Virion IC50): 2.75
- pEC50 ([3]; Hepatitis B virus): < 4.52
- EC90 ([3]; Hepatitis B virus): > 30 µM
- pEC50 [4, 21]: 5.70
- EC90 ([4]; Hepatitis B virus, read-out: HBV EC90): 16 µM
- pEC50 ([4]; Hepatitis B virus, read-out: HBV Virion EC50): 5.55
- EC90 ([4]; Hepatitis B virus, read-out: HBV Virion EC90): 20 µM
- activity in primary assay (HBV virion) [4]: active
- IC50 [5]: > 100 µg/mL
- pIC50 [6]: 4.71

Structure (SMILES): CCCc1cc(=O)oc2c3c(c4c(c12)OC(C)(C)C=C4)OCC(C)C3=O (racemic) [(±)-15f]
- HCMV EC50 [1]: >100 µg/mL
- EBV IC50 [7]: >50 µg/mL
- VZV IC50 [8]: 60.0 µg/mL
- EBV EC50 [9]: >50 µg/mL
- pIC50 ([2]; Table II, read-out: HBV IC50): 3.57
- pIC50 ([2]; Table IV, HBV RI columns, read-out: HBV RI IC50): 3.52
- pIC50 ([2]; Table IV, HBV Virion columns, read-out: HBV Virion IC50): 3.52
- pEC50 ([3]; Table IV): 5.24
- EC90 ([3]; Table IV): 15 µM
- activity in secondary assay (HBV RI) ([3]; text summary of Table IV): active
- pEC50 ([4]; read-out: HBV EC50, Table II): 6.17
- pEC50 ([4]; read-out: HBV Virion EC50, Table IV): 6.09
- EC90 ([4]; read-out: HBV Virion EC90, Table IV): 5 µM
- activity in primary assay (HBV virion) [4]: active
- VZV EC50 [10]: >20 µg/mL
- HCMV IC50 [5]: >100 µg/mL

Structure (SMILES): CCCc1cc(=O)oc2c3c(c4c(c12)OC(C)(C)C=C4)O[C@H](C)[C@@H](C)[C@@H]3O (racemic) [(±)-calanolide A, (±)-Calanolide A]
- antiviral effect (reducing viral CPE) [11]: effective in reducing viral CPE
- antiviral effect (reducing viral CPE) [12]: nearly as effective as (+)-calanolide A

Structure (SMILES): CCCc1cc(=O)oc2c(C(=O)[C@@H](C)[C@@H](C)O)c(O)c3c(c12)OC(C)(C)C=C3 (relative stereo) [(±)-8a, 6,6-Dimethyl-9-hydroxy-10-[2(S*)-methyl-3(R*)-hydroxybutyro-]4-propyl-2H,6H-benzo[1,2-b:3,4b′]dipyran-2-one]
- Maximum Protection (%) [13]: 84%
- protecting cells against HIV infection [13]: highly efficacious
- pEC50 [14]: 5.21
- melting point: 66 to 67 °C
- pIC50 [6]: 4.62

Structure (SMILES): CCCc1cc(=O)oc2c(C(=O)[C@@H](C)[C@H](C)O)c(O)c3c(c12)OC(C)(C)C=C3 (relative stereo) [(±)-8b, 6,6-Dimethyl-9-hydroxy-10-12(S*)-methyl-3(S*)-hydroxybutyro]4-propyl-2H,6H-benzo[1,2-b:3,4-b′]dipyran-2-one]
- Maximum Protection (%) [13]: 81%
- protecting cells against HIV infection [13]: highly efficacious
- pEC50 [14]: 5.64
- melting point: 115 °C
- pIC50 [6]: 4.67

Structure (SMILES): CCCc1cc(=O)oc2c3c(c4c(c12)OC(C)(C)C=C4)O[C@H](C)[C@@H](C)[C@@H]3O [(+)-1, (+)-Calanolide A]
- EC50 [1]: > 20 µg/mL
- IC50 ([7]; Homo sapiens): > 50 µg/mL
- antiviral effect (reducing viral CPE) [11]: effective in reducing viral CPE
- EC50 ([9]; human gammaherpesvirus 4): > 50 µg/mL
- activity against AZT-resistant G-9106 strain of HIV [15]: active
- pIC50 [2, 20]: 3.76
- pIC50 [16]: 4.70
- pEC50 ([17]; HIV-1 replication in CEM-SS cells): 7.00
- protection against the cytopathic effects of HIV-1 ([17]; down to a concentration of 0.1 μM): 100%
- activity against pyridinone-resistant A17 virus [18]: active
- pEC50 [4, 21]: < 5.59
- IC50 [5]: 86.2 µg/mL (≈ 233 µM)

Structure (SMILES): CCCc1cc(=O)oc2c3c(c4c(c12)OC(C)(C)C=C4)O[C@@H](C)[C@H](C)[C@H]3O [(−)-1, (-)-Calanolide A]
- HCMV EC50 [1]: >20 µg/mL
- EBV IC50 [7]: >100 µg/mL
- antiviral effect (reducing viral CPE) [11]: very little antiviral effect
- EBV EC50 [9]: >100 µg/mL
- pIC50 ([2]; Table II, read-out: HBV IC50): 3.76
- pEC50 ([4]; read-out: HBV EC50, Table II): < 4.52
- HCMV IC50 [5]: 80.3 µg/mL
- toxicity ([19]; FIGS. 2(a)-2(e)): relatively non-toxic
- toxicity ([19]; at concentrations of 1 μg/mL, FIGS. 1(a)-1(e)): relatively non-toxic
- antiviral effect (reducing viral CPE) [12]: very little antiviral effect

Structure (SMILES): Cc1cn([C@H]2C[C@H](N=[N+]=[N-])[C@@H](CO)O2)c(=O)[nH]c1=O [AZT, reference compound]
- antiviral effect (reducing viral CPE) [11]: little to no effect
- antiviral effect (reducing viral CPE) [12]: sensitive to AZT

Structure (SMILES): CCCc1cc(=O)oc2c3c(c4c(c12)OC(C)(C)C=C4)OC(C)=C(C)C3O (stereo not drawn) [Compound 6, 12-hydroxy-6,6,10,11-tetramethyl-4-propyl-2H,6H,12H-benzo[1,2-b:3,4-b′:5,6-b″]tripyran-2-one]
- melting point: 176 to 177 °C
